From patent US12077503B2, “Substituted cyclic amides and their use as herbicides” (FMC CORPORATION, priority 2015, dated 2024)

Key:
Type in all cases: in vivo
[1] = tested on: barnyardgrass (Echinochloa crus-galli); assay: Test G Pre-Emergence Protocol; details: Echinochloa crus-galli, pre-emergence, 312 h, evaluated after 13 days
Summary of the method: (§1)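 Glasshouse pre-emergence test: soil-sown seeds, sprayed after 1 d at 15.625, 62.5 or 250 g/ha. Conditions 24/16° C day/night, 14 h light, 65% humidity, watering twice daily. Rating 13 d post-spray (100 = total damage).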

corn (Zea mays) [2] = assay: Test G Pre-Emergence Protocol; details: Zea mays, pre-emergence, 312 h, evaluated after 13 days
Summary of the method: as §1

[3] = tested on: giant foxtail (Setaria faberi); assay: Test G Pre-Emergence Protocol; details: Setaria faberi, pre-emergence, 312 h, evaluated after 13 days
Summary of the method: as §1

[4] = tested on: ivy-leaved morning glory (Ipomoea hederacea); assay: Test G Pre-Emergence Protocol; details: Ipomoea, pre-emergence, 312 h, evaluated after 13 days
Summary of the method: as §1

[5] = tested on: redroot pigweed (Amaranthus retroflexus); assay: Test G Pre-Emergence Protocol; details: Amaranthus retroflexus, pre-emergence, 312 h, evaluated after 13 days
Summary of the method: as §1

[6] = tested on: velvetleaf (Abutilon theophrasti); assay: Test G Pre-Emergence Protocol; details: Abutilon theophrasti, pre-emergence, 312 h, evaluated after 13 days
Summary of the method: as §1

[7] = tested on: barnyardgrass (Echinochloa crus-galli); assay: Test G Post-Emergence Protocol; details: Echinochloa crus-galli, post-emergence, 312 h, read-out: Barnyardgrass damage rating
Summary of the method: (§2)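 Foliar application was made 8 days after sowing, using an aqueous spray of the active in acetone/water (50:50) with 0.5% Tween 20, at doses of 15.625, 62.5 or 250 g/ha. Injury was assessed 13 days later, where 100 meant the plant was fully damaged.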

corn (Zea mays) [8] = assay: Test G Post-Emergence Protocol; details: Zea mays, post-emergence, 312 h, read-out: Corn damage rating
Summary of the method: as §2

[9] = tested on: giant foxtail (Setaria faberi); assay: Test G Post-Emergence Protocol; details: Setaria faberi, post-emergence, 312 h, read-out: Foxtail, Giant damage rating
Summary of the method: as §2

[10] = tested on: ivy-leaved morning glory (Ipomoea hederacea); assay: Test G Post-Emergence Protocol; details: Ipomoea, post-emergence, 312 h, read-out: Morningglory, Ivy-leaved damage rating
Summary of the method: as §2

[11] = tested on: redroot pigweed (Amaranthus retroflexus); assay: Test G Post-Emergence Protocol; details: Amaranthus retroflexus, post-emergence, 312 h, read-out: Pigweed, Redroot damage rating
Summary of the method: as §2

[12] = tested on: velvetleaf (Abutilon theophrasti); assay: Test G Post-Emergence Protocol; details: Abutilon theophrasti, post-emergence, 312 h, read-out: Velvetleaf damage rating
Summary of the method: as §2

[13] = 15.625 g ai/ha, evaluated after 13 days (100=total damage to plant; 0=no damage to plant)
[14] = 62.5 g ai/ha, evaluated after 13 days, 100=total damage to plant, 0=no damage to plant
[15] = 250 g ai/ha, evaluated after 13 days, 100=total damage to plant, 0=no damage to plant

## CN1C[C@H](c2ccc(C(F)(F)F)cc2)[C@@H](C(=O)Nc2cnccc2[S+](C)[O-])C1=O (mixture of isomers) [Compound 1751]
[1]; 15.625 g ai/ha, read-out: Barnyardgrass damage rating (100=total damage to plant; 0=no damage to plant)
  pest or weed control at 15.625 g/ha: 0%
[1]; 62.5 g ai/ha, 100=total damage to plant, 0=no damage to plant, read-out: Barnyardgrass damage rating
  pest or weed control at 62.5 g/ha: 0%
[1]; 250 g ai/ha, read-out: Barnyardgrass damage rating (100=total damage to plant; 0=no damage to plant)
  pest or weed control at 250 g/ha: 0%
Corn (Zea mays) [2]; 15.625 g ai/ha, read-out: Corn damage rating (100=total damage to plant; 0=no damage to plant)
  plant injury at 15.625 g/ha: 0%
Corn (Zea mays) [2]; 62.5 g ai/ha, 100=total damage to plant, 0=no damage to plant, read-out: Corn damage rating
  plant injury at 62.5 g/ha: 0%
Corn (Zea mays) [2]; 250 g ai/ha, read-out: Corn damage rating (100=total damage to plant; 0=no damage to plant)
  plant injury at 250 g/ha: 0%
[3]; 15.625 g ai/ha, read-out: Foxtail, Giant damage rating (100=total damage to plant; 0=no damage to plant)
  pest or weed control at 15.625 g/ha: 0%
[3]; 62.5 g ai/ha, 100=total damage to plant, 0=no damage to plant, read-out: Foxtail, Giant damage rating
  pest or weed control at 62.5 g/ha: 0%
[3]; 250 g ai/ha, read-out: Foxtail, Giant damage rating (100=total damage to plant; 0=no damage to plant)
  pest or weed control at 250 g/ha: 10%
[4]; 15.625 g ai/ha, read-out: Morningglory, Ivy-leaved damage rating (100=total damage to plant; 0=no damage to plant)
  pest or weed control at 15.625 g/ha: 0%
[4]; 62.5 g ai/ha, 100=total damage to plant, 0=no damage to plant, read-out: Morningglory, Ivy-leaved damage rating
  pest or weed control at 62.5 g/ha: 0%
[4]; 250 g ai/ha, read-out: Morningglory, Ivy-leaved damage rating (100=total damage to plant; 0=no damage to plant)
  pest or weed control at 250 g/ha: 0%
[5]; 15.625 g ai/ha, read-out: Pigweed, Redroot damage rating (100=total damage to plant; 0=no damage to plant)
  pest or weed control at 15.625 g/ha: 0%
[5]; 62.5 g ai/ha, 100=total damage to plant, 0=no damage to plant, read-out: Pigweed, Redroot damage rating
  pest or weed control at 62.5 g/ha: 0%
[5]; 250 g ai/ha, read-out: Pigweed, Redroot damage rating (100=total damage to plant; 0=no damage to plant)
  pest or weed control at 250 g/ha: 10%
[6]; 15.625 g ai/ha, read-out: Velvetleaf damage rating (100=total damage to plant; 0=no damage to plant)
  pest or weed control at 15.625 g/ha: 0%
[6]; 62.5 g ai/ha, 100=total damage to plant, 0=no damage to plant, read-out: Velvetleaf damage rating
  pest or weed control at 62.5 g/ha: 0%
[6]; 250 g ai/ha, read-out: Velvetleaf damage rating (100=total damage to plant; 0=no damage to plant)
  pest or weed control at 250 g/ha: 0%
[7]; [13]
  pest or weed control at 15.625 g/ha: 0%
[7]; [14]
  pest or weed control at 62.5 g/ha: 0%
[7]; [15]
  pest or weed control at 250 g/ha: 0%
Corn (Zea mays) [8]; [13]
  plant injury at 15.625 g/ha: 0%
Corn (Zea mays) [8]; [14]
  plant injury at 62.5 g/ha: 0%
Corn (Zea mays) [8]; [15]
  plant injury at 250 g/ha: 0%
[9]; [13]
  pest or weed control at 15.625 g/ha: 0%
[9]; [14]
  pest or weed control at 62.5 g/ha: 0%
[9]; [15]
  pest or weed control at 250 g/ha: 10%
[10]; [13]
  pest or weed control at 15.625 g/ha: 0%
[10]; [14]
  pest or weed control at 62.5 g/ha: 0%
[10]; [15]
  pest or weed control at 250 g/ha: 0%
[11]; [13]
  pest or weed control at 15.625 g/ha: 0%
[11]; [14]
  pest or weed control at 62.5 g/ha: 0%
[11]; [15]
  pest or weed control at 250 g/ha: 10%
[12]; [13]
  pest or weed control at 15.625 g/ha: 0%
[12]; [14]
  pest or weed control at 62.5 g/ha: 0%
[12]; [15]
  pest or weed control at 250 g/ha: 10%
